Publication PMC10781691, “Vertical pathway inhibition of receptor tyrosine kinases and BAD with synergistic efficacy in triple negative breast cancer” (NPJ Precision Oncology, 2024)

Key:
MDA-MB-231 cells [1] = experiment: Annexin V-PI apoptosis flow cytometry; conditions: MDA-MB-231, 5 μM
From the text: Representative flow cytometry plots of Annexin-V and propidium iodide (PI) stained apoptotic
or NPB using flow cytometry analysis. Annexin V-FITC staining is indicated on the x axis, and PI staining is indicated on the y axis. The lower left quadrants represent live cells, the lower right quadrants represent early apoptotic cells, the upper left quadrants represent necrotic cells, and the upper right quadrants display late apoptotic cells. Acquisition of Annexin V and PI data are presented as a percentage (%) in each quadrant. Early apoptotic cells are referred to as Annexin- V positive and late apoptotic cells are referred to as Annexin-V and PI double positive.

MDA-MB-231 cells [2] = experiment: Cell cycle analysis by PI flow cytometry; format: cell-based, human; conditions: MDA-MB-231, 5 μM
From the text: Fig. 3 NCK enhances apoptosis and impedes cell-cycle progression in TNBC cells. a Hallmark analysis of the differential expressed genes (DEGs). […] NES, normalized enrichment score. FDR, false discovery rate.
Supplementary Figure 9: (A) Representative flow cytometry plots using PI staining for DNA
or NPB using flow cytometry analysis.

TNBC cell lines = experiment: 2D total cell number and 3D viability in eight TNBC cell lines; format: cell-based, human

Oc1ccccc1C(c1cccnc1)N1CCN(c2cccc(Cl)c2Cl)CC1 (stereo not shown) [NCK, 2-((4-(2,3-dichlorophenyl)piperazin-1-yl)(pyridin-3-yl)methyl) phenol]
induction of apoptosis (early and late) (MDA-MB-231 cells [1]): more potent effect than NPB in inducing apoptosis | decrease in S-phase (MDA-MB-231 cells [2]): 15.68% | increase in G1-phase (MDA-MB-231 cells [2]): 17.75% | potency vs NPB in reducing 2D and 3D cell viability (TNBC cell lines): more potent than NPB
